Measured values taken from patent US10004732B2 (Novartis AG, priority 2014, dated 2018).
Counter-ions that a name gives are not always drawn.

How the values were obtained:
PI 3-kinase alpha [1] = molecular target: T1, PI 3-kinase alpha (Homo sapiens, UniProt P42336); assay: Kinase Glo Luminescent Kinase Assay (Kglo), assay A; assay type: biochemical; settings: read-out: Assay A PI3Kα IC50
Target sequence in this assay (P42336 whole entry): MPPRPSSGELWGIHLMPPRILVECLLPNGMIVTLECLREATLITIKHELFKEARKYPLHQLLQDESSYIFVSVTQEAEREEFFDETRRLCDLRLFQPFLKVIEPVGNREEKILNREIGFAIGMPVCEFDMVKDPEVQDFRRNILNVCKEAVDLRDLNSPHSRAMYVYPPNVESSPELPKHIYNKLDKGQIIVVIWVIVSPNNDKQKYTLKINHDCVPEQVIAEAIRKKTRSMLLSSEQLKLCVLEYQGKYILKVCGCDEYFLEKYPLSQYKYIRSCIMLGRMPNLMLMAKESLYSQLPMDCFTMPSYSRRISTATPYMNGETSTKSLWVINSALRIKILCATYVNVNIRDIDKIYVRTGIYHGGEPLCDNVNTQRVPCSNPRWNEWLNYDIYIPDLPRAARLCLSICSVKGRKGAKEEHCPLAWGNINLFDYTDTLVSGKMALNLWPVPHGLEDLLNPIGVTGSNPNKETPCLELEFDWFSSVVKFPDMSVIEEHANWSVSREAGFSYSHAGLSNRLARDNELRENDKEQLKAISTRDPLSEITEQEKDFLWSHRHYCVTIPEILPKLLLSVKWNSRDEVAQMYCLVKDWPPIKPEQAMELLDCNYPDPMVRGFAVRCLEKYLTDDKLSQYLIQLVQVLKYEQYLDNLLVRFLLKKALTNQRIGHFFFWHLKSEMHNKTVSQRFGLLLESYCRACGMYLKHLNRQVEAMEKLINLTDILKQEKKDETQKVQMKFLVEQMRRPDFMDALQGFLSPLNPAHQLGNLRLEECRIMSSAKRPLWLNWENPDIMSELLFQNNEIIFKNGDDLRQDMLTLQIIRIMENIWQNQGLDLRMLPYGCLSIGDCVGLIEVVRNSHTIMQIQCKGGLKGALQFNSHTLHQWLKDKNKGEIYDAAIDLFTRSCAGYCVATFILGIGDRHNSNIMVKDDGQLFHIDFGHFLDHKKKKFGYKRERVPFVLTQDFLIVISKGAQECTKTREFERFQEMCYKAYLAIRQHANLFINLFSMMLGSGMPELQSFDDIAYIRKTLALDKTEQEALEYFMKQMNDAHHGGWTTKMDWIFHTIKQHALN

PI 3-kinase beta [2] = molecular target: T2, PI 3-kinase beta (Homo sapiens, UniProt P42338); assay: Kinase Glo Luminescent Kinase Assay (Kglo), assay B; assay type: biochemical; settings: read-out: Assay B PI3Kβ IC50
Target sequence in this assay (P42338 whole entry): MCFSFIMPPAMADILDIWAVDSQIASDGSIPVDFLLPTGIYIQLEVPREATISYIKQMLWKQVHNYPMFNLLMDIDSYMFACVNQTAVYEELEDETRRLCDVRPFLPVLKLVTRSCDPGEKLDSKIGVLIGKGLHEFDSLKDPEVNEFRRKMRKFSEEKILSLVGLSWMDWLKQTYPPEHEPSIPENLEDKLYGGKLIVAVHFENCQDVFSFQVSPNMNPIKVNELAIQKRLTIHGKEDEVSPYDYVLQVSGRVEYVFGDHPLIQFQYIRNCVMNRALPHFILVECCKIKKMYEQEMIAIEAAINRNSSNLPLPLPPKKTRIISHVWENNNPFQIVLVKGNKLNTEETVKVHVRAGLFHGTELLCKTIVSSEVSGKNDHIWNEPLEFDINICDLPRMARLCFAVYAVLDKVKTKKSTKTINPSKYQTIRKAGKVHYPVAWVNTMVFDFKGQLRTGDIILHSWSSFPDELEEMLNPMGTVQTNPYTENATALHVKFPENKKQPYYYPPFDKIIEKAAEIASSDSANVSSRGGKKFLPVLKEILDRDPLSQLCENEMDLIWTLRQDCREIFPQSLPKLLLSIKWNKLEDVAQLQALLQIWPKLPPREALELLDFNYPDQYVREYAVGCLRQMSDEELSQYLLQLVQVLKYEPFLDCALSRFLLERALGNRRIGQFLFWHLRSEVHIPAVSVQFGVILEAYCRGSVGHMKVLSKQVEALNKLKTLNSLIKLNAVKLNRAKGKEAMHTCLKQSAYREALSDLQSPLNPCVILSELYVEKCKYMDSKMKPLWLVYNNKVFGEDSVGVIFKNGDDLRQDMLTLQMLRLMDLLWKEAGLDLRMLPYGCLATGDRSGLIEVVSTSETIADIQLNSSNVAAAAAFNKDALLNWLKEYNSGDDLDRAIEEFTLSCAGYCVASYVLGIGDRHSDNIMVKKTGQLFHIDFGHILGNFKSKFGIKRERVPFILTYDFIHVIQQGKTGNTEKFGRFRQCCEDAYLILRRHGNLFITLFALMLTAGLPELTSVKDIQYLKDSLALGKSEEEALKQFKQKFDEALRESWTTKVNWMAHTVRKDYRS
Target sequence in this assay (P27986 461-568 partner): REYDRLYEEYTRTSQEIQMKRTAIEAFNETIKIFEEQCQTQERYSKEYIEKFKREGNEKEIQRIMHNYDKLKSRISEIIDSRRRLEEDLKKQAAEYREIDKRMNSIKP

Vps34 = Vps34 (Homo sapiens, UniProt Q8NEB9); assay: Kinase Glo Luminescent Kinase Assay (Kglo), assay C; assay type: biochemical; settings: read-out: Assay C VPS34 IC50
PI 4-kinase beta = PI 4-kinase beta (Homo sapiens, UniProt Q9UBF8); assay: Kinase Glo Luminescent Kinase Assay (Kglo), assay D; assay type: biochemical; settings: read-out: Assay D PI4Kβ IC50
PI 3-kinase gamma [3] = molecular target: T3, PI 3-kinase gamma (Homo sapiens, UniProt P48736); assay: TR-FRET Adapta assay, assay E; assay type: biochemical; settings: read-out: Assay E PI3Kγ IC50
PI 3-kinase alpha [4] = molecular target: T1, PI 3-kinase alpha; assay: Cellular assay H1, p-Akt (S473) in Rat-1 cells, Surefire format; assay type: cell-based; settings: non-asterisked data: version H1 (Surefire format), Rat-1 cells; read-out: Assay H PI3Kα IC50
Target sequence in this assay (P42336 whole entry): as the sequence (P42336 whole entry) above
Target sequence in this assay (Q63787 whole entry partner): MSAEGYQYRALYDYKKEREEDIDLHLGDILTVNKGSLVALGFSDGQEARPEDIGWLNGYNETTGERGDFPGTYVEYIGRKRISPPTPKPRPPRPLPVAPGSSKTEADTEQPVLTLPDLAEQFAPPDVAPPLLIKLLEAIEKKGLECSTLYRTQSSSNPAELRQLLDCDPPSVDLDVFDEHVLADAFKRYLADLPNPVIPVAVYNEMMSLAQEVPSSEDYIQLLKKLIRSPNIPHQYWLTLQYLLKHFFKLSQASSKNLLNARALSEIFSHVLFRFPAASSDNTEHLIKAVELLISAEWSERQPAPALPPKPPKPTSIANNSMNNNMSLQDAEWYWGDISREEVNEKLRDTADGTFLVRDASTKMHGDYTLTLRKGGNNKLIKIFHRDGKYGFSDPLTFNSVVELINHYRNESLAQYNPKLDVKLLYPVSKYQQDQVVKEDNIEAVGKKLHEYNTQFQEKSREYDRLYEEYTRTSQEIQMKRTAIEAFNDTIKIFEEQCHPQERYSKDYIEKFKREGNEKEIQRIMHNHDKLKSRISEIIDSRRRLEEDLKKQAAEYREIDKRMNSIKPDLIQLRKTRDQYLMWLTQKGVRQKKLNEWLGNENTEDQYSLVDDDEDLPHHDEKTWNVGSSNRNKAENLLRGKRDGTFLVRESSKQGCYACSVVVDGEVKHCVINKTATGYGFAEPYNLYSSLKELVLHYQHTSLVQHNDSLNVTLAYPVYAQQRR
Excerpt: Cellular Assays for PI 3-Kinase Alpha (H1), Beta (I1) and Delta (J1): Surefire Format
AlphaScreen (Amplified Luminescent Proximity Homogeneous Assay, ALPHA, Perkin Elmer) is a non-radioactive bead-based proximity assay technology to study biomolecular interactions in a homogenous microtiter plate format. The brand name SureFire denotes AlphaScreen assays that are adapted to quantify the phosphorylation of endogenous cellular proteins in cell lysates, by using matched antibody pairs, which consist of an anti-phospho-kinase and an anti-kinase antibody. The assay allows characterization of kinase signaling in cells as well as measurement of kinase inhibitor effects.
Using Rat-1 cells stably expressing myr-HA-tagged versions of the human PI3Kdelta, PI3Kalpha, or PI3Kbeta p110 catalytic subunit isoforms, the assay was developed as a two-plate protocol in a 384-well format.
For compound testing, the cells were seeded at a density of 4000 (Rat-1_PI3Kdelta), 7500 (Rat-1_PI3Kalpha), or 6200 (Rat-1_PI3Kbeta) cells in 20 μl complete growth medium into cell culture treated 384-well plates and were grown at 37° C./5% CO2/90% humidity for 24 h. Shortly before compound transfer, the complete medium was removed, 30 μl assay buffer (DMEM high glucose, 1×MEM NEAA, 10 mM HEPES, 2 mM L-glutamine, 0.1% (w/v) BSA) was added and 10 μl of the compound predilutions were transferred to the cells.

PI 3-kinase beta [5] = molecular target: T2, PI 3-kinase beta; assay: Cellular assay I1, p-Akt (S473) in Rat-1 cells, Surefire format; assay type: cell-based; settings: non-asterisked data: version I1 (Surefire format), Rat-1 cells; read-out: Assay I PI3Kβ IC50
Target sequence in this assay (P42338 whole entry): as the sequence (P42338 whole entry) above
Target sequence in this assay (Q63787 whole entry partner): as the sequence (Q63787 whole entry partner) above

PI 3-kinase delta [6] = molecular target: T4, PI 3-kinase delta (Homo sapiens, UniProt O00329); assay: Cellular assay J1, p-Akt (S473) in Rat-1 cells, Surefire format; assay type: cell-based; settings: non-asterisked data: version J1 (Surefire format), Rat-1 cells; read-out: Assay J PI3Kδ IC50
PI 3-kinase gamma [7] = molecular target: T3, PI 3-kinase gamma; assay: Cellular U937 AKT assay K1 (MSD); assay type: cell-based; settings: U937 cells, K1 format; read-out: Assay K1 PI3Kγ IC50
PI 3-kinase delta [8] = molecular target: T4, PI 3-kinase delta; assay: TR-FRET Adapta assay, assay F; settings: read-out: Assay F PI3Kδ IC50
Target sequence in this assay (O00329 whole entry): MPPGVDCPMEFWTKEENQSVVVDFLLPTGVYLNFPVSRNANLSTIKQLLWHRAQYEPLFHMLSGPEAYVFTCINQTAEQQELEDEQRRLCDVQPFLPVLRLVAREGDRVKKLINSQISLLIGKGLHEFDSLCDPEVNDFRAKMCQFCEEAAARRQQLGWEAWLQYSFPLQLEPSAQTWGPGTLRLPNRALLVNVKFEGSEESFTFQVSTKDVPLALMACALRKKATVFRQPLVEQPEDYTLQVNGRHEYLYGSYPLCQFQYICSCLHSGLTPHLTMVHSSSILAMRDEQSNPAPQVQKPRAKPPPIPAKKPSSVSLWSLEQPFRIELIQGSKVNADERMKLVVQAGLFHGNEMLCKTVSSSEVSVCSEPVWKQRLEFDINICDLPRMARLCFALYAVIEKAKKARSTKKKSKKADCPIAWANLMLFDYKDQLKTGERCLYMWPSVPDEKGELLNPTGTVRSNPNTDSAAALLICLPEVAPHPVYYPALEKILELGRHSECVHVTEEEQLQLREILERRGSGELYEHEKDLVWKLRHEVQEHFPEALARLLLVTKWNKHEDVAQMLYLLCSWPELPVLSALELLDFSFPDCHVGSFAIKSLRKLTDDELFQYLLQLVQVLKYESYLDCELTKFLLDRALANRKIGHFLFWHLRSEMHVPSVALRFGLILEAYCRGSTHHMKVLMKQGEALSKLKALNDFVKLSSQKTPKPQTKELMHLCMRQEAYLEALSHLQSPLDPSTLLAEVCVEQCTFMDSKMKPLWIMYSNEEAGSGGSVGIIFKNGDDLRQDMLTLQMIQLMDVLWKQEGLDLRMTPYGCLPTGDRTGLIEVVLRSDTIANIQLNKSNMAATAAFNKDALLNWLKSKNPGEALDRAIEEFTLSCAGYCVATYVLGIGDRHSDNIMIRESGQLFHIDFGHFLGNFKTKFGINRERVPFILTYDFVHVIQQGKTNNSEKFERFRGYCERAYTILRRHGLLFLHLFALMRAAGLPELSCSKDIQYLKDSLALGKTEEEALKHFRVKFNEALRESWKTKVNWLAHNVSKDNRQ
Target sequence in this assay (P27986 461-568 partner): as the sequence (P27986 461-568 partner) above

[9] = Microsomal clearance assay (M); settings: intrinsic clearance in rat liver microsomes
Description: The experiments were performed in 96-well glass plates at 37° C. on an automated Tecan EVO platform. Test compounds at a concentration of 10 mM in pure DMSO were diluted 1:1000 in water to 10 μM. […] Reactions were initiated by the addition of 150 μL of a cofactor solution containing 2 mM NADPH.

mTOR = mTOR (Homo sapiens, UniProt P42345); assay: Lanthascreen kinase binding assay, assay G; settings: read-out: Assay G mTOR IC50
Description: Lanthascreen™ Kinase Binding Assay for mTOR (G)
Binding of an inhibitor to the kinase competes for binding with the tracer, resulting in a loss of FRET.
50 nL of compound dilutions were dispensed onto white 384-well small volume polystyrene plate.

Sequence of PI 4-kinase beta (Q9UBF8 whole entry): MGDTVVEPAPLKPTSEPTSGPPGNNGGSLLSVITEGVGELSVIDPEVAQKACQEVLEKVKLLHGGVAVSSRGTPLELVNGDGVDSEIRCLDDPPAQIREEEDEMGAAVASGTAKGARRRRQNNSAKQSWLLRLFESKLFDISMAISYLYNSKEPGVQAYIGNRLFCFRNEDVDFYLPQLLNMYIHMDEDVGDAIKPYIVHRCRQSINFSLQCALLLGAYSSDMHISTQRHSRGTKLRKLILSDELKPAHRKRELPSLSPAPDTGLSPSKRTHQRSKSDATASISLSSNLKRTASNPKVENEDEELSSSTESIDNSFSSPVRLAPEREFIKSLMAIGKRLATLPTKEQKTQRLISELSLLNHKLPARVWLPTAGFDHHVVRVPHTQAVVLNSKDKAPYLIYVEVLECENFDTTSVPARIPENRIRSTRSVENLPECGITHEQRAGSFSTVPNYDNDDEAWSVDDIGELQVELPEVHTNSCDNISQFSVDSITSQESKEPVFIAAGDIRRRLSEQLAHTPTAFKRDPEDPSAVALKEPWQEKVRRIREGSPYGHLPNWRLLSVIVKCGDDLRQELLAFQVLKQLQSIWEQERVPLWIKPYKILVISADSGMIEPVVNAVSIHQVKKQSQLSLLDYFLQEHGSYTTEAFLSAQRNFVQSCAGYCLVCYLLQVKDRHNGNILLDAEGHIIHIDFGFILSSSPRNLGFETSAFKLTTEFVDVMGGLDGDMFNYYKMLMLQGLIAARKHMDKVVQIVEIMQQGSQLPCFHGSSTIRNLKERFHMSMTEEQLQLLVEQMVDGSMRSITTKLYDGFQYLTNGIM

Row | Compound | IC50 (PI 3-kinase alpha [1]) | IC50 (PI 3-kinase beta [2]) | IC50 (Vps34) | IC50 (PI 4-kinase beta) | IC50 (PI 3-kinase gamma [3]) | IC50 (PI 3-kinase alpha [4]) | IC50 (PI 3-kinase beta [5]) | IC50 (PI 3-kinase delta [6]) | IC50 (PI 3-kinase gamma [7]) | IC50 (PI 3-kinase delta [8]) | Assay M RLM CI(int) [9] | IC50 (mTOR)
1 | Cc1ncc(-c2nc(-c3cc(S(=O)(=O)NC4CC(O)C4)ccc3C)cnc2N)s1 (mixture of isomers) [Example 43, 3-(5-Amino-6-(2-methylthiazol-5-yl)pyrazin-2-yl)-N-(3-hydroxycyclobutyl)-4-methylbenzenesulfonamide] | 50 nM | 200 nM | 900 nM | 1400 nM | 6 nM | 1390 nM | > 10000 nM | 1190 nM | 15 nM | 220 nM | 55 µL/min/mg | 
2 | Cc1ccc(S(=O)(=O)NCCC(O)C(F)(F)F)cc1-c1cnc(N)c(-c2cnn(C)c2)n1 (centres unmarked) [Example 51, 3-(5-Amino-6-(1-methyl-1H-pyrazol-4-yl)pyrazin-2-yl)-4-methyl-N-(4,4,4-trifluoro-3-hydroxybutyl)benzenesulfonamide] | 370 nM | 4190 nM | 7150 nM | > 9100 nM | 42 nM | 6170 nM | 6600 nM | 3950 nM | 68 nM | 490 nM | 55 µL/min/mg | > 9100 nM
3 | Cc1ccc(S(=O)(=O)N[C@H]2CC[C@H](O)CC2)cc1-c1cnc(N)c(-c2ccnc(F)c2)n1 [Example 60, Trans-3-(5-Amino-6-(2-fluoropyridin-4-yl)pyrazin-2-yl)-N-(-4-hydroxycyclohexyl)-4-methylbenzenesulfonamide] | 110 nM | 4570 nM | > 9100 nM | 3630 nM | 40 nM | 1540 nM | 3080 nM | 1300 nM | 93 nM | 220 nM | 24 µL/min/mg | 8350 nM
4 | Cc1ccc(S(=O)(=O)NCCC(C)(C)O)cc1-c1cnc(N)c(-n2ccnc2)n1 [Example 61, 3-(5-Amino-6-(1H-imidazol-1-yl)pyrazin-2-yl)-N-(3-hydroxy-3-methylbutyl)-4-methylbenzenesulfonamide] | 5470 nM | > 9100 nM | > 9100 nM | > 9100 nM | 1820 nM | 8970 nM | > 10000 nM | 8180 nM | 479 nM | 5810 nM | 56 µL/min/mg | > 9100 nM
5 | Cc1ccc(S(=O)(=O)NCCC(C)(C)O)cc1-c1cnc(N)c(-c2cc(C3CC3)no2)n1 [Example 78, 3-(5-Amino-6-(3-cyclopropylisoxazol-5-yl)pyrazin-2-yl)-N-(3-hydroxy-3-methylbutyl)-4-methylbenzenesulfonamide] | 240 nM | 2200 nM | > 9550 nM | 1550 nM | 13 nM |  |  |  | 66 nM | 180 nM | 152 µL/min/mg | 2350 nM
6 | Cc1ccc(S(=O)(=O)NC[C@H]2C[C@@H](O)C2)cc1-c1cnc(N)c(-c2cc(C3CC3)no2)n1 [Example 100, 3-(5-Amino-6-(3-cyclopropylisoxazol-5-yl)pyrazin-2-yl)-N-(((1s,3s)-3-hydroxycyclobutyl)methyl)-4-methylbenzenesulfonamide] | 500 nM | 5300 nM | 7200 nM | 5750 nM | 3 nM |  |  |  | 74 nM | 680 nM | 95 µL/min/mg | > 9550 nM
7 | Cc1ccc(S(=O)(=O)NC[C@H]2CCCN2)cc1-c1cnc(N)c(-c2cn(C)nc2C)n1 [Example 106, (R)-3-(5-Amino-6-(1,3-dimethyl-1H-pyrazol-4-yl)pyrazin-2-yl)-4-methyl-N-(pyrrolidin-2-ylmethyl)benzenesulfonamide hydrochloride] | 100 nM | 750 nM | > 10000 nM | 5600 nM | 25 nM | > 10000 nM | > 10000 nM | > 10000 nM | 2280 nM | 140 nM | 29 µL/min/mg | 
8 | Cc1ccc(S(=O)(=O)NOCCN(C)C)cc1-c1cnc(N)c(-n2cncn2)n1 [Example 112.2, 3-(5-Amino-6-(1H-1,2,4-triazol-1-yl)pyrazin-2-yl)-N-(2-(dimethylamino)ethoxy)-4-methylbenzenesulfonamide] | 860 nM | 1300 nM | > 10000 nM | 5400 nM | 104 nM |  | > 10000 nM | > 10000 nM | 137 nM | 1200 nM |  | > 10000 nM
9 | Cc1ccc(S(=O)(=O)NCCC(C)(C)O)cc1-c1cnc(N)c(-c2cccnc2Cl)n1 [Example 119.6] | 820 nM | > 9100 nM | 7990 nM | 7700 nM | 161 nM | 4070 nM | 1720 nM | 2880 nM | 860 nM | 380 nM |  | 5610 nM
10 | Cc1cc(-c2nc(-c3cc(S(=O)(=O)NCCC(C)(C)O)ccc3C)cnc2N)n(C)n1 [Example 119.36] | 220 nM | 4410 nM | > 9100 nM | > 9100 nM | 34 nM |  |  |  | 1280 nM | 170 nM | 48 µL/min/mg | > 9100 nM
11 | Cc1csc(-c2nc(-c3cc(S(=O)(=O)NCCC(C)(C)O)ccc3C)cnc2N)c1 [Example 119.43] | 250 nM | 1780 nM | > 9100 nM | > 9100 nM | 54 nM |  |  |  | 60 nM | 100 nM | 136 µL/min/mg | 3370 nM
12 | Cc1ccc(S(=O)(=O)NCCC(C)(C)O)cc1-c1cnc(N)c(-c2cccs2)n1 [Example 119.45] | 150 nM | 3600 nM | > 9100 nM | 2460 nM | 12 nM |  |  |  | 85 nM | 100 nM | 188 µL/min/mg | 8690 nM
13 | Cc1ccc(S(=O)(=O)NCC2(CO)CCCC2)cc1-c1cnc(N)c(-n2cncn2)n1 [Example 127.25] | 130 nM | 650 nM | > 10000 nM | 4400 nM | 31 nM |  |  |  | 66 nM | 340 nM | 493 µL/min/mg | 3300 nM
14 | Cc1ccc(S(=O)(=O)NCC2COCCN2C)cc1-c1cnc(N)c(-c2cn(C)nc2C)n1 (centres unmarked) [Example 128.2, 3-(5-Amino-6-(1,3-dimethyl-1H-pyrazol-4-yl)pyrazin-2-yl)-4-methyl-N-((4-methylmorpholin-3-yl)methyl)benzenesulfonamide] | 270 nM |  | > 10000 nM | > 10000 nM | 49 nM | 1910 nM |  | 1570 nM | 90 nM | 450 nM | 27 µL/min/mg | 
15 | Cc1cc(-c2nc(-c3cc(S(=O)(=O)NCCC(C)(O)C(F)(F)F)ccc3C)cnc2N)ccn1 (centres unmarked) [Example 129.13, 3-(5-amino-6-(2-methylpyridin-4-yl)pyrazin-2-yl)-4-methyl-N-(4,4,4-trifluoro-3-hydroxy-3-methylbutyl)benzenesulfonamide] | 300 nM | > 9100 nM | > 9100 nM | > 9100 nM | 28 nM |  | > 10000 nM | 5860 nM | 144 nM | 260 nM | 170 µL/min/mg | > 9100 nM
16 | Cc1ccc(S(=O)(=O)NCC2COC2)cc1-c1cnc(N)c(-n2cncn2)n1 [Example 131, 3-(5-Amino-6-(1H-1,2,4-triazol-1-yl)pyrazin-2-yl)-4-methyl-N-(oxetan-3-ylmethyl)benzenesulfonamide] | 370 nM | 2450 nM | 4300 nM | 4950 nM | 42 nM |  |  |  | 493 nM | 760 nM | 42 µL/min/mg | 3700 nM
17 | CCc1noc(-c2nc(-c3cc(S(=O)(=O)N4CCC(CO)CC4)ccc3C)cnc2N)n1 [Example 141, (1-((3-(5-Amino-6-(3-ethyl-1,2,4-oxadiazol-5-yl)pyrazin-2-yl)-4-methylphenyl)sulfonyl)piperidin-4-yl)methanol] | 1770 nM | > 9100 nM | > 9100 nM | > 9100 nM | 54 nM | 4700 nM | 8750 nM | 5310 nM | 947 nM | 340 nM |  | > 9100 nM
